From patent US12145947B2, “Pyrimidine based modulators and uses thereof” (Quanta Therapeutics, Inc., priority 2022, dated 2024)

Experiments:
KRAS G12D/RAF1 = biological target: T1, KRAS G12D/RAF1 (Homo sapiens, UniProt P01116, G12D); assay: Protein-protein interaction (PPI) HTRF assay KRAS G12D/RAF1; type: binding; conditions: Table 4
T1 construct: His6-MBP (N, cleaved yes); made in house; host or cells: E. coli
Procedure: Biotinylated KRAS wt and KRAS G12DNV proteins were expressed and purified in conditions similar to those previously reported (Tran, et al., 2021) (Zhang, et al., 2020). Briefly, KRAS (1-169) proteins were expressed in E. coli at 18° C. with an upstream TEV cleavage site (ENLFYQS (SEQ ID NO: 6)) followed an Avi tag sequence ([…] (SEQ ID NO: 7)). KRAS expression constructs contained both a His6 (SEQ ID NO: 8) and maltose-binding protein (MBP) tags at the N-terminus for Ni-NTA column purification prior to overnight TEV cleavage and MBP column purification. The avi-tagged NRAS expression construct contained both a His6 tag (SEQ ID NO: 8) and SUMO cleavage sige at the N-terminus for Ni-NTA column purification followed by His-ULPi digestion overnight. All avi-tagged RAS proteins were dialyzed into buffer containing ATP, biotin, and BirA followed by purification over a second Ni-NTA column and then run over a size exclusion HiLoad™ 26/600 Superdex™ column in 20 mM HEPES, pH 7.5, 300 mM NaCl, 5 mM MgCl2, and 1 mM TCEP. Fractions containing the protein of interest were pooled, concentrated, and confirmed by intact mass spectrometry. To prepare ‘GTP’ loaded KRAS and NRAS, biotinylated KRAS or NRAS was nucleotide exchanged from GDP-bound protein to GppNHp-bound (Jena Biosciences, NU-401-50) protein in the presence of alkaline phosphatase and excess GppNHp as previously described and the resulting nucleotide content was confirmed by HPLC reverse phase analytical chromatography (Donohue, et al., 2019) (Tran, et al., 2021).
His-tagged RAF1 (52-131) was similarly expressed in E. coli at 18° C. overnight with an upstream TEV cleavage site. His-tagged RAF1 expression construct contained both a His6 (SEQ ID NO: 8) and MBP tags at the N-terminus for Ni-NTA column purification followed by MBP-tagged TEV digestion overnight. RAF1 protein samples were further purified over a MBP column followed by a Ni-NTA column and a second MBP column. The fractions containing the protein of interest were pooled, concentrated, and further purified over a HiLoad™ 16/600 Superdex™ 75 pg size exclusion column into 20 mM HEPES, pH8.0, 200 mM NaCl, 5 mM TCEP.
When RAS proteins are in the active GTP-bound conformation, they bind the effector protein RAF1 at the N-terminus Ras-binding domain (RBD, residues 52-131) (Tran, et al., 2021). Homogenous time resolved fluorescence (HTRF) was used to monitor the interaction between wt or mutant KRAS and RAF1 or wt NRAS and RAFT. Compounds were assayed in the presence of KRAS G12D/V and RAF1 versus wt KRAS to assess activity against mutant and w.t. KRAS. Similarly, compounds were then assayed in the presence of w.t. NRAS and RAF1 to assess RAS isoform selectivity. In all assay formats, His-tagged RAF1 protein was incubated with the HTRF donor, anti-6His (“6His” disclosed as SEQ ID NO: 8) Tb Cryptate gold (Cisbio 61DB10RDF), and biotinylated RAS proteins were incubated with the HTRF acceptor, streptavidin-d2 (CisBio 610SADLA). The intensity of the fluorescence signal emitted is proportional to binding between the two proteins. The donor solution was prepared by mixing 16 nM His-tagged RAF1 in protein dilution buffer with 1:100 anti-6His (“6His” disclosed as SEQ ID NO: 8) Tb cryptate in PPI-Terbium detection buffer. 16 nM biotinylated RAS protein was diluted into protein dilution buffer (50 mM Tris-HCl pH 7.5, 150 mM NaCl, 0.1 mM MgCl2, 1 mM TCEP, 0.005% Tween20) and mixed with 1:2000 Streptavidin-d2 diluted in PPI-Terbium detection buffer (CisBio 61DBTORDF). 50× compound in DMSO was mixed with 16 nM KRAS-acceptor solution and incubated for 30 minutes at room temperature. After compound pre-incubation with KRAS, the RAF1 donor solution was added to the KRAS-acceptor solution and incubated for 1 hour at room temperature. The fluorescence signal emitted was monitored at 665 nm and 615 nm using an Envision multimode plate reader. […]

[1] = biological target: T2, GST-tagged KRAS-G12D (2-169) (Homo sapiens, UniProt P01116, G12D); assay: Nucleotide exchange assay (NEA), SOS-mediated, HTRF, KRAS G12D; type: biochemical; conditions: Table 4; IC50 extracted at 30 min
T2 construct: GST-tagged KRAS-G12D (2-169, Reaction Biology, MSC-11-539); purchased Reaction Biology MSC-11-539 (KRAS G12D); MSC-11-502 (SOS1cat)
Text: This activity is tightly regulated by GTPase activating proteins (GAPs) and guanine nucleotide exchange factors (GEFs). GEFs, such as SOS1/2, activate Ras proteins by exchanging GDP for GTP, thus returning Ras to its active conformation (Simanshu, Nissley, & McCormick, 2017). […] Homogenous time resolved fluorescence (HTRF) was used to detect SOS-mediated binding of a fluorescent GTP analog, GTP-DY-647P1 (Jena Biosciences NU-820-647P1) to GST-tagged KRAS-G12D (2-169, Reaction Biology, MSC-11-539) or to GST-tagged KRAS-G12V (2-169, Reaction Biology, MSC-11-540).
GST-tagged KRAS-G12D (2-169) and anti-GST MAb Tb Cryptate Gold (CisBio 61GSTTLB) were diluted into assay buffer (20 mM HEPES, pH 7.3, 150 mM NaCl, 5 mM MgCl2, 0.05% BSA 0.0025% NP40, 1 mM DTT) to prepare a 2.5× donor solution. 5× compound was added to the protein mixture and incubated for 1 h at RT. 2.5× acceptor solution containing SOSIcat (564-1049, Reaction Biology MSC-11-502) and GTP-DY-647P1 were then added to the donor KRAS mixture such that the final concentration of the reaction contained 5 nM GST-tagged KRAS-G12D (2-169), 20 nM SOScat, and 150 nM GTP. The reaction was monitored using at RT with the Envision multimode plate reader (Ex/Em 337/665, […]) up to 90 minutes at 5 minute intervals. To monitor KRAS-G12V Sos-mediated nucleotide exchange, 80 nM SOS was added to reaction instead of 20 nM. All other components were the same as previously described. Data was blanked to reactions without SOS1 and % inhibition was calculated such that DMSO only=0% and blank=100%. Curve fitting was done using a 4 parameter fit. Reported IC50 values were extracted at 30 min and 90 min for the KRAS-G12D and KRAS-G12V assays, respectively.
Curve fitting was done using a 4 parameter fit. NEA KRAS G12D IC50 (uM) values of selected compounds are depicted in Table 2 with compounds having a value <0.01 uM as ++++; >0.01 uM to 0.1 uM as +++; >0.1 uM to 1 uM as ++; >1 uM to 20 uM as +; and >20 uM as NA.

T1 sequence (P01116 with tags, fused parts or gaps isoform P01116-2 G12D): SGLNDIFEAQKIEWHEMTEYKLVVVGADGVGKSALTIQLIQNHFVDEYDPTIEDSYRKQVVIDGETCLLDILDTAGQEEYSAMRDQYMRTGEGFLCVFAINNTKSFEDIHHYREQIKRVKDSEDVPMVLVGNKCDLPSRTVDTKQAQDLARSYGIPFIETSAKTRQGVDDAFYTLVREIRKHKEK
T2 sequence (P01116 2-169 isoform P01116-2 G12D): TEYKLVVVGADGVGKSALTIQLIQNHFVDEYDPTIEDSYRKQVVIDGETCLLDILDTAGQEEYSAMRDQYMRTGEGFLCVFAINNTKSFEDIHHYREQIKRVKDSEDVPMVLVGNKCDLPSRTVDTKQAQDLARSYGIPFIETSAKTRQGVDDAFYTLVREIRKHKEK

Row | SMILES | IC50 (KRAS G12D/RAF1) [nM] | IC50 [1] [nM]
1 | CN1CCc2c(cccc2Oc2nc(N3C[C@H]4CC[C@@H](C3)N4)c(C#N)c(N3CC4(CCc5sc(N)c(C#N)c54)C3)n2)C1 [Compound 57, 2-amino-1′-[5-cyano-2-[(2-methyl-3,4-dihydro-1H-isoquinolin-5-yl)oxy]-6-[(1R,5S)-3,8-diazabicyclo[3.2.1]octan-3-yl]pyrimidin-4-yl]spiro[5,6-dihydrocyclopenta[b]thiophene-4,3′-azetidine]-3-carbonitrile] | 10000 to 100000 | 1000 to 20000
2 | N#Cc1c(N2C[C@H]3CC[C@@H](C2)N3)nc(OCC2(CN3CCC(F)(F)C3)CC2)nc1N1CC2(CCc3sc(N)c(C#N)c32)C1 [Compound 58, 2-amino-1′-[5-cyano-6-[(1R,5S)-3,8-diazabicyclo[3.2.1]octan-3-yl]-2-[[1-[(3,3-difluoropyrrolidin-1-yl)methyl]cyclopropyl]methoxy]pyrimidin-4-yl]spiro[5,6-dihydrocyclopenta[b]thiophene-4,3′-azetidine]-3-carbonitrile] | 1000 to 10000 | < 10
3 | CO/N=C1/CCCN(c2nc(OC[C@@]34CCCN3C[C@H](F)C4)nc(N3CC4(CCc5sc(N)c(C#N)c54)C3)c2C#N)CC1 [Compound 59, 2-amino-1′-[5-cyano-2-[[(2R,8S)-2-fluoro-1,2,3,5,6,7-hexahydropyrrolizin-8-yl]methoxy]-6-[(4Z)-4-methoxyiminoazepan-1-yl]pyrimidin-4-yl]spiro[5,6-dihydrocyclopenta[b]thiophene-4,3′-azetidine]-3-carbonitrile] | 10000 to 100000 | 100 to 1000
4 | Cc1nnc(-c2nn3c(c2Cl)CN(c2nc(OC[C@@]45CCCN4C[C@H](F)C5)nc(N4CC5(CCc6sc(N)c(C#N)c65)C4)c2C#N)CCC3)n1C [Compound 60, 2-amino-1′-[6-[3-chloro-2-(4,5-dimethyl-1,2,4-triazol-3-yl)-4,6,7,8-tetrahydropyrazolo[1,5-a][1,4]diazepin-5-yl]-5-cyano-2-[[(2R,8S)-2-fluoro-1,2,3,5,6,7-hexahydropyrrolizin-8-yl]methoxy]pyrimidin-4-yl]spiro[5,6-dihydrocyclopenta[b]thiophene-4,3′-azetidine]-3-carbonitrile] | 1000 to 10000 | < 10
5 | N#Cc1c(N2C[C@H]3CC[C@@H](C2)[C@@H]3N)nc(OCC2(CN3CCOCC3)CC2)nc1N1CC2(CCc3sc(N)c(C#N)c32)C1 [Compound 61, 2-amino-1′-[6-[(1R,5S)-8-amino-3-azabicyclo[3.2.1]octan-3-yl]-5-cyano-2-[[1-(morpholinomethyl)cyclopropyl]methoxy]pyrimidin-4-yl]spiro[5,6-dihydrocyclopenta[b]thiophene-4,3′-azetidine]-3-carbonitrile] | 100 to 1000 | 10 to 100
6 | N#Cc1cnc(OCC2(CN3CCOCC3)CC2)nc1N1CC2(CCCc3sc(N)c(C#N)c32)C1 [Compound 63, 2-amino-1′-[5-cyano-2-[[1-(morpholinomethyl)cyclopropyl]methoxy]pyrimidin-4-yl]spiro[6,7-dihydro-5H-benzothiophene-4,3′-azetidine]-3-carbonitrile] | 10000 to 100000 | 10 to 100
7 | N#Cc1c(N2C[C@H]3CC[C@@H](C2)N3)nc(OCC2(CN3CCOCC3)COC2)nc1N1CC2(CCc3sc(N)c(C#N)c32)C1 [Compound 64, 2-amino-1′-[5-cyano-2-[[3-(morpholinomethyl)oxetan-3-yl]methoxy]-6-[(1R,5S)-3,8-diazabicyclo[3.2.1]octan-3-yl]pyrimidin-4-yl]spiro[5,6-dihydrocyclopenta[b]thiophene-4,3′-azetidine]-3-carbonitrile] | 1000 to 10000 | < 10
8 | N#Cc1cnc(OC[C@@]23CCCN2C[C@H](F)C3)nc1N1CC2(CCc3sc(N)c(C#N)c32)C1 [Compound 65, 2-amino-1′-[5-cyano-2-[[(2R,8S)-2-fluoro-1,2,3,5,6,7-hexahydropyrrolizin-8-yl]methoxy]pyrimidin-4-yl]spiro[5,6-dihydrocyclopenta[b]thiophene-4,3′-azetidine]-3-carbonitrile] | 10000 to 100000 | 1000 to 20000
9 | N#Cc1cnc(OCC2(CN3CCOCC3)CC2)nc1N1CC2(CCc3sc(N)c(C#N)c32)C1 [Compound 66, 2-amino-1′-[5-cyano-2-[[1-(morpholinomethyl)cyclopropyl]methoxy]pyrimidin-4-yl]spiro[5,6-dihydrocyclopenta[b]thiophene-4,3′-azetidine]-3-carbonitrile] | 10000 to 100000 | 100 to 1000
10 | CC1Cn2nncc2CN1c1nc(OC[C@@]23CCCN2C[C@H](F)C3)nc(N2CC3(CCc4sc(N)c(C#N)c43)C2)c1C#N (stereo partly drawn) [Compound 67, 2-amino-1′-[5-cyano-6-(6-methyl-6,7-dihydro-4H-triazolo[1,5-a]pyrazin-5-yl)-2-[[(2R,8S)-2-fluoro-1,2,3,5,6,7-hexahydropyrrolizin-8-yl]methoxy]pyrimidin-4-yl]spiro[5,6-dihydrocyclopenta[b]thiophene-4,3′-azetidine]-3-carbonitrile] | 10000 to 100000 | 100 to 1000
